In US10660914B2, “Stuffy nose deblocking composition having antiviral activity” (MARINOMED BIOTECH AG, priority 2015, dated 2020):

Key:
[1] = Osmolality of carrageenan preparations; assay type: physicochemical
human coronavirus OC43 = assay: Hemagglutination inhibition assay, minimal inhibitory concentration for prevention of hCoV OC43 attachment to chicken RBCs; assay type: cell-based
Protocol: On a 96-well plate, two hemagglutination units of hCoV OC43/well were incubated with a ½-log dilution series of test or control samples for 10 min at room temperature. Final assay concentrations were 0.002 to 3 μg/ml iota-carrageenan in aqueous 0.5, 0.9, 2.0, 2.3 or 2.6% NaCl solution in the presence or absence of 7% sorbitol. Then, a suspension of chicken RBCs (1% v/v in PBS) was added to each well to allow hemagglutination of red blood cells (RBCs) by the virus for 1.5 hrs at 4° C. At the time point of assay evaluation, control RBCs in the absence of carrageenan were fully agglutinated, whereas hemagglutination was inhibited in the presence of carrageenan up to a sample-specific concentration, the minimal inhibitory concentration.

[2] = tested on: human rhinovirus 1a (HRV1a); assay: Inhibition of human rhinovirus 1a infection of Hela cells (cell viability, IC50)
Protocol: (§1) Hela cells were seeded into 96 well plates with a cell density of 5*10^3 cells per well and cultivated for 24 hours in a standard DMEM tissue culture medium containing 4.5 g/I glucose. Virus suspensions containing carrageenan polymer at varying concentrations of between 0 and 150 μg/ml, in combination with NaCl and sorbitol (as indicated in the respective legends to each table) in a dilution series, were incubated for 30 minutes. Cells were infected with these virus suspensions containing the test substances and 7*10^3 (HRV1a) or 5*10^4 (HRV8) infectious units per well. 30 minutes after infection the virus inoculum was removed and substituted by virus-free infection medium containing carrageenan polymer, NaCl salt and sorbitol in the concentrations to be tested. The cells were incubated for 2 to 3 days at 33° C. […] An incubation of cells with the same dilution series of test substances (i.e. carragenan component plus osmolalitiy adjusting agents) in the absence of viral infection was performed to monitor for a potential toxicity of the treatment. Calculation of IC50 values was performed with standard fitting software ExcelFit.

[3] = tested on: human rhinovirus 8 (HRV8); assay: Inhibition of human rhinovirus 8 infection of Hela cells (cell viability, IC50)
Protocol: as §1

[4] = 0.9% NaCl (295 mOsm/kg) compared to 0.5% NaCl (174 mOsm/kg)
[5] = 2% NaCl (670 mOsm/kg) compared to 0.5% NaCl (174 mOsm/kg)
[6] = 2.6% NaCl (872 mOsm/kg) compared to 0.5% NaCl (174 mOsm/kg)
[7] = 2.3% NaCl (776 mOsm/kg) compared to 0.5% NaCl (174 mOsm/kg)

iota-carrageenan [iota carrageenan] showed an osmolality ([1]; Table 1, solution with 0.9% NaCl) of 295 mOsm/kg, an osmolality ([1]; Table 1, solution with 2% NaCl) of 670 mOsm/kg and an osmolality ([1]; Table 1, solution with 2.3% NaCl) of 776 mOsm/kg. The osmolality ([1]; Table 1, solution with 2.6% NaCl) was 872 mOsm/kg, the osmolality ([1]; Table 4, solution with 0.9% NaCl) was 295 mOsm/kg and the osmolality ([1]; Table 4, solution with 2% NaCl) was 670 mOsm/kg. It also gave an osmolality ([1]; Table 4, solution with 2.3 NaCl) of 776 mOsm/kg, an osmolality ([1]; Table 4, solution with 2.6% NaCl) of 872 mOsm/kg and an osmolality ([1]; Table 5, solution with 0.5% NaCl + 7% sorbitol) of 597 mOsm/kg. The osmolality ([1]; Table 5, solution with 0.9% NaCl + 7% sorbitol) was 733 mOsm/kg, the osmolality ([1]; Table 5, solution with 2.3% NaCl) was 748 mOsm/kg and the “Increase of the minimal inhibitory concentration, hCV OC43” value (human coronavirus OC43; 0.5% NaCl + 7% sorbitol (597 mOsm/kg) compared to 0.5% NaCl (174 mOsm/kg)) was 1-fold (ns). The “Increase of the minimal inhibitory concentration, hCV OC43” value (human coronavirus OC43; [4]) was 1-fold (ns), the “Increase of the minimal inhibitory concentration, hCV OC43” value (human coronavirus OC43; 0.9% NaCl + 7% sorbitol (733 mOsm/kg) compared to 0.5% NaCl (174 mOsm/kg)) was 1-fold (ns) and the “Increase of the minimal inhibitory concentration, hCV OC43” value (human coronavirus OC43; [5]) was 10-fold*. For the same substance, the “Increase of the minimal inhibitory concentration, hCV OC43” value (human coronavirus OC43; 2.3% NaCl (748 mOsm/kg) compared to 0.5% NaCl (174 mOsm/kg)) was 10-fold*, the “Increase of the minimal inhibitory concentration, hCV OC43” value (human coronavirus OC43; 2.3 NaCl (776 mOsm/kg) compared to 0.5% NaCl (174 mOsm/kg)) was 10-fold* and the “Increase of the minimal inhibitory concentration, hCV OC43” value (human coronavirus OC43; [6]) was 10-fold*. The “Increase of IC50 value, HRV1a inhibition” value ([2]; 0.9% NaCl (295 mOsm/kg) compared to hypoosmolar 0.5% NaCl solution (174 mOsm/kg)) was 3.1-fold* ^, the “Increase of IC50 value, HRV1a inhibition” value [2, 5] was 14.5-fold* and the “Increase of IC50 value, HRV1a inhibition” value [2, 7] was 22.3-fold*. The “Increase of IC50 value, HRV1a inhibition” value [2, 6] was 33.7-fold*, the “reduction in inhibitory efficacy on human rhinovirus replication” value ([2]; isoosmolar (0.9%) and hyperosmolar (2%, 2.3%, 2.6% NaCl) compared with hypoosmolar solution (0.5% NaCl), summary of Table 1) was no more than 34 fold and the “Increase of IC50 value, HRV8 inhibition” value [3, 4] was 1.8-fold (ns). For the same substance, the “Increase of IC50 value, HRV8 inhibition” value [3, 5] was 3.6-fold*, the “Increase of IC50 value, HRV8 inhibition” value [3, 7] was 6.9-fold* and the “Increase of IC50 value, HRV8 inhibition” value [3, 6] was 7.5-fold*.
